Assay results as given in patent US20090203577A1 (EXELIXIS, INC., priority 2005, published 2009).
Read-outs that look alike come from different tables or passages of the source.

Target: T1, human farnesoid X receptor (Homo sapiens, UniProt Q96RI1)
T1 construct: CMX-farnesoid X receptor (full length human farnesoid X receptor); expressed in transfected cells; host or cells: CV-1 African Green Monkey Kidney cells
T1 sequence (Q96RI1 1-472 isoform Q96RI1-2): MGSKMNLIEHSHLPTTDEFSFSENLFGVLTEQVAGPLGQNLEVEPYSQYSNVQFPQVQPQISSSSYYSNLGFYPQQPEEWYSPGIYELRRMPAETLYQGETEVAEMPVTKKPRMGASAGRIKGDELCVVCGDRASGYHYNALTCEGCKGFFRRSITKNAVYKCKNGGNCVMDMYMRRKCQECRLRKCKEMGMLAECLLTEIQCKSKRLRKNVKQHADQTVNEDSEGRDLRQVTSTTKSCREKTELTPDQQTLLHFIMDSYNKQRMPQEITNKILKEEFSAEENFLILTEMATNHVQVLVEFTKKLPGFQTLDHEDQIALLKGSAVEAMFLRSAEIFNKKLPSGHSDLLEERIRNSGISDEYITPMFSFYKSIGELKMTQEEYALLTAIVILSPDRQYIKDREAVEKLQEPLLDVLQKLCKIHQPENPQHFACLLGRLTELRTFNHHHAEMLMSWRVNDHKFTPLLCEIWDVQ
T1 sequence (P19793 1-462 partner): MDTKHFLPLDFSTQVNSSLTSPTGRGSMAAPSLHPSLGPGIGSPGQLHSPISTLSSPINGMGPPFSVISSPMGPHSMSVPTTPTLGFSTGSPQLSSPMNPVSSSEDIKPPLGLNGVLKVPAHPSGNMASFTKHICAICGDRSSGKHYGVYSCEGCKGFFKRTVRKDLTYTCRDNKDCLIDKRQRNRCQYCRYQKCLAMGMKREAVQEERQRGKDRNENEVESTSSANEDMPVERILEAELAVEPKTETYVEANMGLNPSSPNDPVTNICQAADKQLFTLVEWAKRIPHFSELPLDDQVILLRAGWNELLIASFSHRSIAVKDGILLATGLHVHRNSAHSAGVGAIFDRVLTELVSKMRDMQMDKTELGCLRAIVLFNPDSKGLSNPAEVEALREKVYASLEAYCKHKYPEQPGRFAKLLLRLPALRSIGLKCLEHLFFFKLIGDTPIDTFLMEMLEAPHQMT
Experiment: FXR in vitro assays (farnesoid X receptor/ECREx7 co-transfection assay, TR-FRET assay), Table I
Type: cell-based
Conditions: for Emax: read-out: % Efficacy
Procedure: The basic co-transfection protocol for measuring the farnesoid X receptor activity is as follows. CV-1 African Green Monkey Kidney cells were plated 24 hours before transfection to achieve approximately 70-80 percent confluency. […] The assay was allowed to continue for an additional 18-20 hours, after which the cells were lysed, with lysis buffer (1% triton X 100, 10% glycerol, 5 mM Dithiothreitol, 1 mM EGTA, 25 mM Tricine, pH 7.8) and the luciferase activity measured in the presence of Luciferase assay buffer (0.73 mM ATP, 22.3 mm Tricine, 0.11 mM EGTA, 0.55 mM Luciferin, 0.15 mM Coenzyme A, 0.5 mM HEPES, 10 mM Magnesium sulphatc) on a standard luminometer plate reader (PE Biosystems, NorthStar Reader), using recommended operating instructions and conditions.
The dose response curves are generated from an 8 point curve with concentrations differing by ½ LOG units. Each point represents the average of 4 wells of data from a 384 well plate. A curve for the data is generated by using the equation:
Y=Bottom+(Top−Bottom)/(1+10̂((Log EC50−X)*HillSlope))
The EC50/IC50 is therefore defined as the concentration at which an agonist or antagonist elicits a response that is half way between the Top (maximum) and Bottom (baseline) values. The EC50/IC50 values represented are the averages of at least 3 independent experiments.

[1] = agonist activity, one or more of the in vitro assays, read-out: EC50

| SMILES | EC50 [1] [µM] | Emax [%] | EC50 [µM] |
| --- | --- | --- | --- |
| CC(C)OC(=O)C1=CN(C(=O)c2cccc(CN(C)C)c2)CC(C)(C)c2c1[nH]c1ccccc21 [Example 108, 1-methylethyl 3-({3-[(dimethylamino)methyl]phenyl}-carbonyl)-1,1-dimethyl-1,2,3,6-tetrahydroazepino[4,5-b]indole-5-carboxylate] | 0.1 to 1 | > 100 | – |
| Cc1cc(C(=O)N2C=C(C(=O)OC(C)C)c3[nH]c4ccccc4c3C(C)(C)C2)no1 [Example 109, 1-methylethyl 1,1-dimethyl-3-[(5-methylisoxazol-3-yl)carbonyl]-1,2,3,6-tetrahydroazepino[4,5-b]indole-5-carboxylate] | 0.1 to 1 | > 100 | – |
| CC(C)OC(=O)C1=CN(C(=O)c2ccc(F)cc2C(F)(F)F)CC(C)(C)c2c1[nH]c1ccccc21 [Example 110, 1-methylethyl 3-{[4-fluoro-2-(trifluoromethyl)phenyl]car-bonyl}-1,1-dimethyl-1,2,3,6-tetrahydroazepino[4,5-b]indole-5-carboxylate] | 0.01 to 0.1 | > 100 | – |
| CC(C)OC(=O)C1=CN(C(=O)c2ccc(F)cc2Cl)CC(C)(C)c2c1[nH]c1ccccc21 [Example 111, 1-methylethyl 3-[(2-chloro-4-fluorophenyl)carbonyl]-1,1-dimethyl-1,2,3,6-tetrahydroazepino[4,5-b]indole-5-carboxylate] | 0.01 to 0.1 | > 100 | – |
| CCN(CC)CCCNC(=O)Oc1ccc2c3c([nH]c2c1)C(C(=O)OC(C)C)=CN(C(=O)c1ccc(F)c(F)c1)CC3(C)C [Example 112, 1-methylethyl 8-[({[3-(diethylamino)propyl]amino}carbonyl)oxy]-3-[(3,4-difluorophenyl)carbonyl]-1,1-dimethyl-1,2,3,6-tetrahydroazepino[4,5-b]indole-5-carboxylate] | – | > 100 | 1 to 10 |
| CC(C)OC(=O)C1=CN(C(=O)c2cccc(CCl)c2)CC(C)(C)c2c1[nH]c1ccccc21 [Example 113, 1-methylethyl 3-{[3-(chloromethyl)phenyl]car-bonyl}-1,1-dimethyl-1,2,3,6-tetrahydroazepino[4,5-b]indole-5-carboxylate] | 0.01 to 0.1 | > 100 | – |
| CCN(CC)Cc1cccc(C(=O)N2C=C(C(=O)OC(C)C)c3[nH]c4ccccc4c3C(C)(C)C2)c1 [Example 114, 1-methylethyl 3-({3-[(diethylamino)methyl]phenyl}carbonyl)-1,1-dimethyl-1,2,3,6-tetrahydroazepino[4,5-b]indole-5-carboxylate] | 0.1 to 1 | > 100 | – |
| CC(C)OC(=O)C1=CN(C(=O)c2ccc(F)c(F)c2)CC(C)(C)c2c1[nH]c1ccc(OCc3ccccc3)cc21 [Example 115, 1-methylethyl 3-[(3,4-difluorophenyl)carbonyl]-1,1-dimethyl-9-[(phenylmethyl)oxy]-1,2,3,6-tetrahydroazepino[4,5-b]indole-5-carboxylate] | 0.01 to 0.1 | > 100 | – |
| CC(C)OC(=O)C1=CN(C(=O)c2cccc(CN3CCCC3)c2)CC(C)(C)c2c1[nH]c1ccccc21 [Example 117, 1-methylethyl 1,1-dimethyl-3-{[3-(pyrrolidin-1-ylmethyl)phenyl]carbonyl}-1,2,3,6-tetrahydroazepino[4,5-b]indole-5-carboxylate] | – | > 100 | – |
| CCN1CCN(Cc2cccc(C(=O)N3C=C(C(=O)OC(C)C)c4[nH]c5ccccc5c4C(C)(C)C3)c2)CC1 [Example 120, 1-methylethyl 3-({3-[(4-ethylpiperazin-1-yl)methyl]phenyl}carbonyl)-1,1-dimethyl-1,2,3,6-tetrahydroazepino[4,5-b]indole-5-carboxylate] | 0.1 to 1 | > 100 | – |
| CC1(C)CN(C(=O)c2ccc(F)c(F)c2)C=C(C(=O)CCl)c2[nH]c3ccccc3c21 [Example 121, 2-chloro-1-{3-[(3,4-difluorophenyl)carbonyl]-1,1-dimethyl-1,2,3,6-tetrahydroazepino[4,5-b]indol-5-yl}ethanone] | 0.1 to 1 | < 40 | – |
| CC1(C)OCC(COC(=O)C2=CN(C(=O)c3ccc(F)c(F)c3)CC(C)(C)c3c2[nH]c2ccccc32)O1 (stereo not shown) [Example 122, (2,2-dimethyl-1,3-dioxolan-4-yl)methyl 3-[(3,4-difluorophenyl)carbonyl]-1,1-dimethyl-1,2,3,6-tetrahydroazepino[4,5-b]indole-5-carboxylate] | 0.1 to 1 | > 100 | – |
| COC(=O)C1=CN(C(=O)c2ccc(F)c(F)c2)CC(C)(C)c2c1[nH]c1ccccc21 [Example 123, methyl 3-[(3,4-difluorophenyl)carbonyl]-1,1-dimethyl-1,2,3,6-tetrahydroazepino[4,5-b]indole-5-carboxylate] | 0.1 to 1 | > 100 | – |
| CC1(C)CN(C(=O)c2ccc(F)c(F)c2)C=C(C(=O)OCC(O)CO)c2[nH]c3ccccc3c21 (stereo not shown) [Example 124, 2,3-dihydroxypropyl 3-[(3,4-difluorophenyl)carbonyl]-1,1-dimethyl-1,2,3,6-tetrahydroazepino[4,5-b]indole-5-carboxylate] | 0.01 to 0.1 | > 100 | – |
| CC(C)OC(=O)C1=CN(C(=O)c2cccc(CN3CCOCC3)c2)CC(C)(C)c2c1[nH]c1ccccc21 [Example 125, 1-methylethyl 1,1-dimethyl-3-{[3-(morpholin-4-ylmethyl)phenyl]carbonyl}-1,2,3,6-tetrahydroazepino[4,5-b]indole-5-carboxylate] | – | > 100 | – |
| CC(C)OC(=O)C1=CN(C(=O)c2ccc(F)c(F)c2)CC(C)(C)c2c1[nH]c1cc(OC(=O)NCCN3CCCC3)ccc21 [Example 126, 1-methylethyl 3-[(3,4-difluorophenyl)carbonyl]-1,1-dimethyl-8-({[(2-pyrrolidin-1-ylethyl)amino]carbonyl}oxy)-1,2,3,6-tetrahydroazepino[4,5-b]indole-5-carboxylate] | – | > 100 | 0.01 to 0.1 |
| CC(C)OC(=O)C1=CN(C(=O)c2cccc(C(F)(F)F)c2)CC(C)(C)c2c1[nH]c1ccccc21 [Example 128, 1-methylethyl 1,1-dimethyl-3-{[3-(trifluoromethyl)phenyl]car-bonyl}-1,2,3,6-tetrahydroazepino[4,5-b]indole-carboxylate] | 0.01 to 0.1 | > 100 | – |
| CC1(C)CN(C(=O)c2ccc(F)c(F)c2)C=C(C(=O)OC[C@H](O)CO)c2[nH]c3ccccc3c21 [Example 129, (2R)-2,3-dihydroxypropyl 3-[(3,4-difluorophenyl)carbonyl]-1,1-dimethyl-1,2,3,6-tetrahydroazepino[4,5-b]indole-5-carboxylate] | 0.1 to 1 | > 100 | – |
| CC(C)OC(=O)C1=CN(C(=O)c2cccc(C(F)(F)F)c2F)CC(C)(C)c2c1[nH]c1ccccc21 [Example 133, 1-methylethyl 3-{[2-fluoro-3-(trifluoromethyl)phenyl]car-bonyl}-1,1-dimethyl-1,2,3,6-tetrahydroazepino[4,5-b]indole-5-carboxylate] | 0.01 to 0.1 | > 100 | – |
| CC1(C)CN(C(=O)c2ccc(F)c(F)c2)C=C(C(=O)OC(CF)CF)c2[nH]c3ccccc3c21 [Example 136, 2-fluoro-1-(fluoromethyl)ethyl 3-[(3,4-difluorophenyl)carbonyl]-1,1-dimethyl-1,2,3,6-tetrahydroazepino[4,5-b]indole-5-carboxylate] | 0.001 to 0.01 | > 100 | – |
| CC(C)OC(=O)C1=CN(C(=O)c2ccc(-n3cccn3)cc2)CC(C)(C)c2c1[nH]c1ccccc21 [Example 141, 1-methylethyl 1,1-dimethyl-3-{[4-(1H-pyrazol-1-yl)phenyl]carbonyl}-1,2,3,6-tetrahydroazepino[4,5-b]indole-5-carboxylate] | 0.01 to 0.1 | > 100 | – |
